Values quoted from earlier work in patent US20070036851A1, “Acid labile drug compositions” (priority 2002, published 2007).

Settings: in vitro, water, pH of about 6; colour changes from clear to yellow, then brown, then purple

stability at acidic pH (drug degradation): quickly cyclizes
SMILES: COc1ccc2[nH]c([S+]([O-])Cc3ncc(C)c(OC)c3C)nc2c1 (stereo not shown) [omeprazole]
